Columns and labels:
Assay in all cases: KinomeScan kinase profiling
Format in all cases: binding
SYK = molecular target: T1, SYK (Homo sapiens, UniProt P43405)
T1 construct: host or cells: E. coli host derived from the BL21 strain, T7 phage lysate
From the text: (§1) The kinases were ABL1(F317L), ABL1(H396P), ABL1(Q252H), ABL1(Y253F), ADCK3, ADCK4, ALK, ARK5, AXL, BLK, BRSK2, CDK7, CIT, CLK4, CSNK1D, CSNK1E, DAPK1, DAPK3, DCAMKL3, DMPK, EGFR, EGFR(E746-A750DEL), EGFR(G719C), EGFR(G719S), EGFR(L747-E749DEL, A750P), EGFR(L747-S752 DEL, P753S), EGFR(L747-T751DEL, Sin), EGFR(L858R), EGFR(L861Q), EGFR(S752-I759DEL), EPHA5, EPHA6, ERBB2, ERBB4, ERK3, ERK4, FGR, FLT3(D835H), FLT3(D835Y), FLT3(ITD), FLT3(N841 I), FRK, GAK, GCN2(KIN.DOM.2, S808G), HCK, IRAK3, JAK1(KIN.DOM.1), KIT, KIT(D816V), KIT(V559D), KIT(V559D,T670I), LCK, LOK, LTK, LYN, MAP3K3, MAP4K4, MAP4K5, MET, MINK, MKNK1, MKNK2, MST4, MYLK2, PDGFRB, PIM3, PKN2, PRKD1, PRKD2, PRKD3, PRKG1, RIPK2, RPS6KA4(KIN.DOM.2), SIK2, SLK, SNARK, SRC, STK36, TNIK, TNNI3K, TYK2(KIN.DOM.2).
(§2) Kinase assays: Assays were performed as described in Fabian et al. (2005) Nature Biotechnology, vol. 23, p. 329. Kinase-tagged T7 phage strains were grown in parallel in 24 or 96-well blocks in an E. coli host derived from the BL21 strain. E. coli were grown to log-phase and infected with T7 phage from a frozen stock (multiplicity of infection ˜0.1) and incubated with shaking at 32° C. until lysis (˜90 minutes). The lysates were centrifuged and filtered to remove cell debris. […] The liganded beads were blocked with excess biotin and washed with blocking buffer (SeaBlock (Pierce), 1% BSA, 0.05% Tween 20, 1 mM DTT) to remove unbound ligand and to reduce non-specific phage binding.
(§3) Test compounds were prepared as 40× stocks in DMSO and diluted into the aqueous environment. 2.5% DMSO was added to control assays lacking a test compound. All reactions were performed in polystyrene 96-well plates that had been pretreated with blocking buffer in a final volume of 0.04 ml. […] The phage titer in the eluates was measured by quantitative PCR.

DAPK3 = molecular target: T2, DAPK3 (Homo sapiens, UniProt O43293)
T2 construct: purchased Ambit Biosciences Corp (KinomeScan); host or cells: T7 phage in E. coli host derived from BL21
T2 sequence (O43293 whole entry): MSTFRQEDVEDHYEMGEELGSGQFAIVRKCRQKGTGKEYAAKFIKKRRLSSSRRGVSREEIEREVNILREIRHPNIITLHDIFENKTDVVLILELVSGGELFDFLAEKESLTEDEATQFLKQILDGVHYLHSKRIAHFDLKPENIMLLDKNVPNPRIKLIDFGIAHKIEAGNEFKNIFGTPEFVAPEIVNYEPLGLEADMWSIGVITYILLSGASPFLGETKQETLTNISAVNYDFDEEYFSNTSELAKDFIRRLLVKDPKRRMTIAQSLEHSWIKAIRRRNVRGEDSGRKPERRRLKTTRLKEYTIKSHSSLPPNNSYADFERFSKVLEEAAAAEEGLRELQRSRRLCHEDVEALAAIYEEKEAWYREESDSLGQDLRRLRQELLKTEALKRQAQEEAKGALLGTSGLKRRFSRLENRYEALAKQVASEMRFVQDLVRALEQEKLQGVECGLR
From the text: as §1, §2, §3

ABL1 (Q252H) = molecular target: T3, ABL1 (Q252H) (Homo sapiens, UniProt P00519, Q252H)
T3 construct: host or cells: E. coli host derived from BL21 (T7 phage lysate)
From the text: as §1, §2, §3

CLK1 = molecular target: T4, CLK1 (Homo sapiens, UniProt P49759)
T4 construct: host or cells: T7 phage in E. coli (BL21-derived)
From the text: as §1, §2, §3

TEC = molecular target: T5, TEC (Homo sapiens, UniProt P42680)
T5 construct: host or cells: E. coli host derived from the BL21 strain, T7 phage lysate
From the text: as §1, §2, §3

DCAMKL3 = molecular target: T6, DCAMKL3 (Homo sapiens, UniProt Q9C098)
T6 construct: purchased Ambit Biosciences Corp (KinomeScan); host or cells: T7 phage in E. coli host derived from BL21
T6 sequence (Q9C098 whole entry): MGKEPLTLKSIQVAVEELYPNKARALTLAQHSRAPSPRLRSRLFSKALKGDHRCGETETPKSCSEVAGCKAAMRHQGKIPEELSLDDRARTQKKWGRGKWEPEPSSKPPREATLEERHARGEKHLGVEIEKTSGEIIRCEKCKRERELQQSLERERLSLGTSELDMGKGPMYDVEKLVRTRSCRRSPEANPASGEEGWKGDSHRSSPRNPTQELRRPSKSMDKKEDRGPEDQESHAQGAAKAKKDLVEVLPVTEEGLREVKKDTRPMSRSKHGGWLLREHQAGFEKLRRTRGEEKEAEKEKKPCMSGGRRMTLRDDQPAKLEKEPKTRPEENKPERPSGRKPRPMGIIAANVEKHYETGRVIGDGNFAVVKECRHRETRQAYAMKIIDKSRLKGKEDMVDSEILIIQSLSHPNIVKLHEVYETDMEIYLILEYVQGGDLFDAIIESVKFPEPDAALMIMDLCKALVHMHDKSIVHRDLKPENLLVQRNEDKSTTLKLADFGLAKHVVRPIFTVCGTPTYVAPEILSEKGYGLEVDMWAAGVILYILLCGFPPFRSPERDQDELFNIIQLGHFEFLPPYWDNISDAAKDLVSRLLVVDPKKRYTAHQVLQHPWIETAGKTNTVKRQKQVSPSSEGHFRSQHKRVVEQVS
From the text: as §1, §2, §3

EGFR (S752-1759del) = molecular target: T7, EGFR (S752-1759del) (Homo sapiens, UniProt P00533, DEL752-759)
T7 construct: host or cells: E. coli host derived from BL21, T7 phage lysate
From the text: as §1, §2, §3

JNK1 = molecular target: T8, JNK1 (Homo sapiens, UniProt P45983)
T8 construct: host or cells: T7 phage in E. coli host derived from BL21
From the text: as §1, §2, §3

AMPK-alpha1 = molecular target: T9, AMPK-alpha1 (Homo sapiens, UniProt Q13131)
T9 construct: host or cells: E. coli host derived from BL21 (T7 phage lysate)
From the text: as §1, §2, §3

BLK = molecular target: T10, BLK (Homo sapiens, UniProt P51451)
T10 construct: purchased Ambit Biosciences Corp (KinomeScan); host or cells: E. coli host derived from the BL21 strain, T7 phage
From the text: as §1, §2, §3

RET (M918T) = molecular target: T11, RET (M918T) (Homo sapiens, UniProt P07949, M918T)
T11 construct: host or cells: E. coli host derived from BL21, T7 phage lysate
T11 sequence (P07949 29-1114 M918T): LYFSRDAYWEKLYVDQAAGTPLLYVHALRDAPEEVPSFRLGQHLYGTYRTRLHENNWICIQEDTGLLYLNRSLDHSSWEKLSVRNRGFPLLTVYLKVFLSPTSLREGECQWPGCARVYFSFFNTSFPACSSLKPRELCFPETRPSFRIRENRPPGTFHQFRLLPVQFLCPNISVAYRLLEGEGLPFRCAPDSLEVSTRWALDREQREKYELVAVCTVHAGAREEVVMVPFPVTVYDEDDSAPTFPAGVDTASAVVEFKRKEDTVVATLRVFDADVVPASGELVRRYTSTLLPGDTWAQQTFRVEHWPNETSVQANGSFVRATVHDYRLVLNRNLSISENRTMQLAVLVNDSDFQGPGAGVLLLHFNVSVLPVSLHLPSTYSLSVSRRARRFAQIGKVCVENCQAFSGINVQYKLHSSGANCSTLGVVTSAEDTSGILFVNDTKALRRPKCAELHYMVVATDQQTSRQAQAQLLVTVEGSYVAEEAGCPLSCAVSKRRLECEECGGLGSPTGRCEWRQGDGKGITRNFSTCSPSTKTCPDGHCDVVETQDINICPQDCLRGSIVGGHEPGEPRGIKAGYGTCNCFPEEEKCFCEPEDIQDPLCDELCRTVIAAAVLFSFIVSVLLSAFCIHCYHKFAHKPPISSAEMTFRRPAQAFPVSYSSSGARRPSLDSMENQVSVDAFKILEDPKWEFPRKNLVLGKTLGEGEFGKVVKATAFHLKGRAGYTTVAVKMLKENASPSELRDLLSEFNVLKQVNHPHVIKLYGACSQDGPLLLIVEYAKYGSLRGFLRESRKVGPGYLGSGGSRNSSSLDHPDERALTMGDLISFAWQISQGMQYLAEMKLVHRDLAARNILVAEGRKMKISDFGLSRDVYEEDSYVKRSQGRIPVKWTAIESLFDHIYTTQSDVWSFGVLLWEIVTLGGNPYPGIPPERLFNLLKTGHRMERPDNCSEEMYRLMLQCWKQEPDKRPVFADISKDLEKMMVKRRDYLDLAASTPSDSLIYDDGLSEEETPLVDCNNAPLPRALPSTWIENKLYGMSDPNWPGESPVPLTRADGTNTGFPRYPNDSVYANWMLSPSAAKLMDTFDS
From the text: as §1, §2, §3

DAPK1 = molecular target: T12, DAPK1 (Homo sapiens, UniProt P53355)
T12 construct: purchased Ambit Biosciences Corp (KinomeScan); host or cells: T7 phage in E. coli host derived from BL21
From the text: as §1, §2, §3

STK16 = molecular target: T13, STK16 (Homo sapiens, UniProt O75716)
T13 construct: host or cells: E. coli host derived from the BL21 strain, T7 phage lysate
T13 sequence (O75716 whole entry): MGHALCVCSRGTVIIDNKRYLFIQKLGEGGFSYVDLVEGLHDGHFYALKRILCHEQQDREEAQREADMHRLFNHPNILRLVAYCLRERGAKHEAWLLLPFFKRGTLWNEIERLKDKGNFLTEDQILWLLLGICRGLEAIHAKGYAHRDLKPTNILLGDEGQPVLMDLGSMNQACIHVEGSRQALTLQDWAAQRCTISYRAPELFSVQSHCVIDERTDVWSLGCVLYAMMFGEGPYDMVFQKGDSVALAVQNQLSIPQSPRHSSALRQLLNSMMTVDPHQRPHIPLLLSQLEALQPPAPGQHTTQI
From the text: as §1, §2, §3

SgK110 = molecular target: T14, SgK110 (Homo sapiens, UniProt P0C264)
T14 construct: host or cells: E. coli host derived from the BL21 strain, T7 phage lysate
From the text: as §1, §2, §3

BIKE = molecular target: T15, BIKE (Homo sapiens, UniProt Q9NSY1)
T15 construct: purchased Ambit Biosciences Corp (KinomeScan); host or cells: E. coli host derived from the BL21 strain, T7 phage
T15 sequence (Q9NSY1 whole entry): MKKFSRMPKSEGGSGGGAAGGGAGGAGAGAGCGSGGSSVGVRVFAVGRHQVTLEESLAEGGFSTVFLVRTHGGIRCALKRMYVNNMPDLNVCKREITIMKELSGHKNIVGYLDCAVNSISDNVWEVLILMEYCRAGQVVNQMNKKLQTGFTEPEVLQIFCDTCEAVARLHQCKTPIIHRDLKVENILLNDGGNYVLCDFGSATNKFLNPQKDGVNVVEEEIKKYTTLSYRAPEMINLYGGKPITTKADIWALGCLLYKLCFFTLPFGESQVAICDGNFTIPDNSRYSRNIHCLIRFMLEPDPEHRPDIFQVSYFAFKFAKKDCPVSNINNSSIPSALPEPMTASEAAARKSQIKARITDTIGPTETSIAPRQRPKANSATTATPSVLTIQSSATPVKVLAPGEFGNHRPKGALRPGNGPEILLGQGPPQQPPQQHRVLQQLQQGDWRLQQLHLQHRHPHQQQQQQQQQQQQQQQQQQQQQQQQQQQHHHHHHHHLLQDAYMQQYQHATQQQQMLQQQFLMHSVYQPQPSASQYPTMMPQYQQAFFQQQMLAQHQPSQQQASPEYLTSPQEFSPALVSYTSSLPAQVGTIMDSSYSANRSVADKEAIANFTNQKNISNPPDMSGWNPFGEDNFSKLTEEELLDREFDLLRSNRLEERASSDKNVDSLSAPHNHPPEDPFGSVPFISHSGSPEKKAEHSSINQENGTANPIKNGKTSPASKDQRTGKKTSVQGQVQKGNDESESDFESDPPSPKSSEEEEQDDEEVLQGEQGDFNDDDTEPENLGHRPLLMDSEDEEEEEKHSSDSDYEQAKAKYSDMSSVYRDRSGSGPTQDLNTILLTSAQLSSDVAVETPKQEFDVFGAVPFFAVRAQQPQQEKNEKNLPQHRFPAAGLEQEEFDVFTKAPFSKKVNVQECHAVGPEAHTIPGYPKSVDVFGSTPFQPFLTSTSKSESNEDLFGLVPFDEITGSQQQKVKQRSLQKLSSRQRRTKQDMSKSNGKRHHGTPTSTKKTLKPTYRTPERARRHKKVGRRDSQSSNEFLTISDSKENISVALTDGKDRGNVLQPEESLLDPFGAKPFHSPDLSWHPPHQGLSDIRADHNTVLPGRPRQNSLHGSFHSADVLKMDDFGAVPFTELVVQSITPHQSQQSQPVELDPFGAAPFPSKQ
From the text: as §1, §2, §3

TRKB = molecular target: T16, TRKB (Homo sapiens, UniProt Q16620)
T16 construct: purchased Ambit Biosciences Corp (KinomeScan); host or cells: E. coli host derived from the BL21 strain (T7 phage lysate)
T16 sequence (Q16620 32-822): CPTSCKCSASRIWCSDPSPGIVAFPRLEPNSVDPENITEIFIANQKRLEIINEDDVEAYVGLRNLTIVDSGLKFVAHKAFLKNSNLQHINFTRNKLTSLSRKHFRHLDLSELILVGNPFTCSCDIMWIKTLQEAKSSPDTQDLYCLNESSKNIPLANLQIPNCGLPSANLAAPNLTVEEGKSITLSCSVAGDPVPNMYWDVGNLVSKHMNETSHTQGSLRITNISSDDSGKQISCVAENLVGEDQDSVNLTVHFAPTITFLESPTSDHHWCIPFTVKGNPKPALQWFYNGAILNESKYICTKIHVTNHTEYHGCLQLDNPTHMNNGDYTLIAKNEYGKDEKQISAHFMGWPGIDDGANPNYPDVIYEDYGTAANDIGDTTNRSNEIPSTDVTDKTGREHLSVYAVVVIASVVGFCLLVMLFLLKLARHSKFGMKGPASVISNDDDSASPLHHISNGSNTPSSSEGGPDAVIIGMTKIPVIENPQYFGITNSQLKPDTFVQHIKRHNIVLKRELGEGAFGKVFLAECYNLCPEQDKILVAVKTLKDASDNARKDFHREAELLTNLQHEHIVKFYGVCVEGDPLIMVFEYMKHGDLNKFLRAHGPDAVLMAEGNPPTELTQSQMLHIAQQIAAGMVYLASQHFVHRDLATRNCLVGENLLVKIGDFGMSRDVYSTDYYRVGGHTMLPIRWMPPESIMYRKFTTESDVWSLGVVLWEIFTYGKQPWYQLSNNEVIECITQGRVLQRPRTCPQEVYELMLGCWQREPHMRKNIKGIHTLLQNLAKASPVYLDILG
From the text: as §1, §2, §3

RIOK1 = molecular target: T17, RIOK1 (Homo sapiens, UniProt Q9BRS2)
T17 construct: host or cells: E. coli host derived from BL21, T7 phage lysate
From the text: as §1, §2, §3

PLK1 = molecular target: T18, PLK1 (Homo sapiens, UniProt P53350)
T18 construct: purchased Ambit Biosciences Corp (KinomeScan); host or cells: E. coli host derived from BL21, infected with T7 phage
T18 sequence (P53350 whole entry): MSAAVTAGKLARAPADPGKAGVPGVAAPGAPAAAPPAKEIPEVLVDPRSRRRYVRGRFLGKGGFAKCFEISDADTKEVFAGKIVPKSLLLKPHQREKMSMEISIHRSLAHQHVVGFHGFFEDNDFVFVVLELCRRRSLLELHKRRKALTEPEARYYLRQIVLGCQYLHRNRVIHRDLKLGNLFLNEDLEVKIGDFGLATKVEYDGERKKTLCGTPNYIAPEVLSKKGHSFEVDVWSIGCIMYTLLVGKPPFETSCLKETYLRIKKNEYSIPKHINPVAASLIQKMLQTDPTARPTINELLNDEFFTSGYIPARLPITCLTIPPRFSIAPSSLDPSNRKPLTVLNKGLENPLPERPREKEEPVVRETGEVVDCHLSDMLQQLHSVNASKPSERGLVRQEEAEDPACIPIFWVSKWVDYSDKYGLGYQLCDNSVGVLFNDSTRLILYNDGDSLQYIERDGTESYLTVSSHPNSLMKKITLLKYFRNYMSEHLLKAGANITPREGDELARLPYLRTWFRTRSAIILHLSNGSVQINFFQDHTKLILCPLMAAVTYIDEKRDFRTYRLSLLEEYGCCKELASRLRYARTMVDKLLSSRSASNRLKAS
From the text: as §1, §2, §3

EGFR (L861Q) = molecular target: T19, EGFR (L861Q) (Homo sapiens, UniProt P00533, L861Q)
T19 construct: host or cells: E. coli host derived from BL21, T7 phage lysate
From the text: as §1, §2, §3

FLT1 = molecular target: T20, FLT1 (Homo sapiens, UniProt P17948)
T20 construct: host or cells: E. coli host derived from BL21, infected with T7 phage
From the text: as §1, §2, §3

MAP3K3 = molecular target: T21, MAP3K3 (Homo sapiens, UniProt Q99759)
T21 construct: host or cells: E. coli derived from BL21, infected with T7 phage
From the text: as §1, §2, §3

CIT = molecular target: T22, CIT (Homo sapiens, UniProt O14578)
T22 construct: host or cells: T7 phage in E. coli (BL21-derived)
From the text: as §1, §2, §3

SRMS = molecular target: T23, SRMS (Homo sapiens, UniProt Q9H3Y6)
T23 construct: host or cells: E. coli host derived from the BL21 strain, T7 phage lysate
From the text: as §1, §2, §3

Q: Which results are given for `C#Cc1cccc(Nc2ncnc3cc(OC)c(OCCCN4CCOCC4)cc23)c1` [NRC-2694, N-(3-ethylnylphenyl)-7-methoxy-6-[3-(4-morpholinyl)propoxy]-4-quinazolinamine]?
A: % Ctrl @ 10000 nM (SYK): 56 % Ctrl; % Ctrl @ 10000 nM (DAPK3): 34 % Ctrl; % Ctrl @ 10000 nM (ABL1 (Q252H)): 15 % Ctrl; % Ctrl @ 10000 nM (CLK1): 31 % Ctrl; % Ctrl @ 10000 nM (TEC): 90 % Ctrl; % Ctrl @ 10000 nM (DCAMKL3): 14 % Ctrl; % Ctrl @ 10000 nM (EGFR (S752-1759del)): 0 % Ctrl; % Ctrl @ 10000 nM (JNK1): 99 % Ctrl; % Ctrl @ 10000 nM (AMPK-alpha1): 50 % Ctrl; % Ctrl @ 10000 nM (BLK): 4.4 % Ctrl; % Ctrl @ 10000 nM (RET (M918T)): 37 % Ctrl; % Ctrl @ 10000 nM (DAPK1): 26 % Ctrl; % Ctrl @ 10000 nM (STK16): 100 % Ctrl; % Ctrl @ 10000 nM (SgK110): 83 % Ctrl; % Ctrl @ 10000 nM (BIKE): 36 % Ctrl; % Ctrl @ 10000 nM (TRKB): 73 % Ctrl; % Ctrl @ 10000 nM (RIOK1): 36 % Ctrl; % Ctrl @ 10000 nM (PLK1): 81 % Ctrl; % Ctrl @ 10000 nM (EGFR (L861Q)): 0 % Ctrl; % Ctrl @ 10000 nM (FLT1): 64 % Ctrl; % Ctrl @ 10000 nM (MAP3K3): 5.9 % Ctrl; % Ctrl @ 10000 nM (CIT): 5.0 % Ctrl; % Ctrl @ 10000 nM (SRMS): 100 % Ctrl

— US9050341B2, “Methods of treating drug resistant and other tumors by administering 6,7-dialkoxy quinazoline derivatives” (NATCO PHARMA LIMITED, priority 2009, dated 2015)
